The source made the active and inactive calls.

Among the data in ChEMBL document CHEMBL1201862, “PubChem BioAssay data set” (2004) are IC50, AC50 and EC50 values, retold here.

A short description of test [1]: PhoP-dependent GFP reporter suppression – synthesized compounds, round 3, SAR follow-up (AID 434996). It is filed as functional.
The target in test [2] is Peroxisome proliferator-activated receptor gamma/Nuclear receptor corepressor 2 (Homo sapiens, UniProt P37231+Q9Y618). It is filed as functional.
Sequence of Peroxisome proliferator-activated receptor gamma/Nuclear receptor corepressor 2 (P37231 whole entry): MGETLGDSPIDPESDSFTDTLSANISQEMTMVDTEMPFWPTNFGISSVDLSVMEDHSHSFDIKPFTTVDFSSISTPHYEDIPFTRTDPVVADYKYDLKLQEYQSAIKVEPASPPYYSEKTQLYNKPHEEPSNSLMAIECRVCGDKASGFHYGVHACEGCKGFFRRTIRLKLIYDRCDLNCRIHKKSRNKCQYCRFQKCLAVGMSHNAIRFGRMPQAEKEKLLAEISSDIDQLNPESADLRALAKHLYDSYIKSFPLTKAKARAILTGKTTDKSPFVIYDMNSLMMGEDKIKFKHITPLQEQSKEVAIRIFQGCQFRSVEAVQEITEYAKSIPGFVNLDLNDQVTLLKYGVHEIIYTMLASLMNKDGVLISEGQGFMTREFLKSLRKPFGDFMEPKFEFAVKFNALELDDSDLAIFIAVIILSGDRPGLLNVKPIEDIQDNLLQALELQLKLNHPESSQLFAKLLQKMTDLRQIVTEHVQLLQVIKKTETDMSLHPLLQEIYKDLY
Sequence of Peroxisome proliferator-activated receptor gamma/Nuclear receptor corepressor 2 (Q9Y618 whole entry): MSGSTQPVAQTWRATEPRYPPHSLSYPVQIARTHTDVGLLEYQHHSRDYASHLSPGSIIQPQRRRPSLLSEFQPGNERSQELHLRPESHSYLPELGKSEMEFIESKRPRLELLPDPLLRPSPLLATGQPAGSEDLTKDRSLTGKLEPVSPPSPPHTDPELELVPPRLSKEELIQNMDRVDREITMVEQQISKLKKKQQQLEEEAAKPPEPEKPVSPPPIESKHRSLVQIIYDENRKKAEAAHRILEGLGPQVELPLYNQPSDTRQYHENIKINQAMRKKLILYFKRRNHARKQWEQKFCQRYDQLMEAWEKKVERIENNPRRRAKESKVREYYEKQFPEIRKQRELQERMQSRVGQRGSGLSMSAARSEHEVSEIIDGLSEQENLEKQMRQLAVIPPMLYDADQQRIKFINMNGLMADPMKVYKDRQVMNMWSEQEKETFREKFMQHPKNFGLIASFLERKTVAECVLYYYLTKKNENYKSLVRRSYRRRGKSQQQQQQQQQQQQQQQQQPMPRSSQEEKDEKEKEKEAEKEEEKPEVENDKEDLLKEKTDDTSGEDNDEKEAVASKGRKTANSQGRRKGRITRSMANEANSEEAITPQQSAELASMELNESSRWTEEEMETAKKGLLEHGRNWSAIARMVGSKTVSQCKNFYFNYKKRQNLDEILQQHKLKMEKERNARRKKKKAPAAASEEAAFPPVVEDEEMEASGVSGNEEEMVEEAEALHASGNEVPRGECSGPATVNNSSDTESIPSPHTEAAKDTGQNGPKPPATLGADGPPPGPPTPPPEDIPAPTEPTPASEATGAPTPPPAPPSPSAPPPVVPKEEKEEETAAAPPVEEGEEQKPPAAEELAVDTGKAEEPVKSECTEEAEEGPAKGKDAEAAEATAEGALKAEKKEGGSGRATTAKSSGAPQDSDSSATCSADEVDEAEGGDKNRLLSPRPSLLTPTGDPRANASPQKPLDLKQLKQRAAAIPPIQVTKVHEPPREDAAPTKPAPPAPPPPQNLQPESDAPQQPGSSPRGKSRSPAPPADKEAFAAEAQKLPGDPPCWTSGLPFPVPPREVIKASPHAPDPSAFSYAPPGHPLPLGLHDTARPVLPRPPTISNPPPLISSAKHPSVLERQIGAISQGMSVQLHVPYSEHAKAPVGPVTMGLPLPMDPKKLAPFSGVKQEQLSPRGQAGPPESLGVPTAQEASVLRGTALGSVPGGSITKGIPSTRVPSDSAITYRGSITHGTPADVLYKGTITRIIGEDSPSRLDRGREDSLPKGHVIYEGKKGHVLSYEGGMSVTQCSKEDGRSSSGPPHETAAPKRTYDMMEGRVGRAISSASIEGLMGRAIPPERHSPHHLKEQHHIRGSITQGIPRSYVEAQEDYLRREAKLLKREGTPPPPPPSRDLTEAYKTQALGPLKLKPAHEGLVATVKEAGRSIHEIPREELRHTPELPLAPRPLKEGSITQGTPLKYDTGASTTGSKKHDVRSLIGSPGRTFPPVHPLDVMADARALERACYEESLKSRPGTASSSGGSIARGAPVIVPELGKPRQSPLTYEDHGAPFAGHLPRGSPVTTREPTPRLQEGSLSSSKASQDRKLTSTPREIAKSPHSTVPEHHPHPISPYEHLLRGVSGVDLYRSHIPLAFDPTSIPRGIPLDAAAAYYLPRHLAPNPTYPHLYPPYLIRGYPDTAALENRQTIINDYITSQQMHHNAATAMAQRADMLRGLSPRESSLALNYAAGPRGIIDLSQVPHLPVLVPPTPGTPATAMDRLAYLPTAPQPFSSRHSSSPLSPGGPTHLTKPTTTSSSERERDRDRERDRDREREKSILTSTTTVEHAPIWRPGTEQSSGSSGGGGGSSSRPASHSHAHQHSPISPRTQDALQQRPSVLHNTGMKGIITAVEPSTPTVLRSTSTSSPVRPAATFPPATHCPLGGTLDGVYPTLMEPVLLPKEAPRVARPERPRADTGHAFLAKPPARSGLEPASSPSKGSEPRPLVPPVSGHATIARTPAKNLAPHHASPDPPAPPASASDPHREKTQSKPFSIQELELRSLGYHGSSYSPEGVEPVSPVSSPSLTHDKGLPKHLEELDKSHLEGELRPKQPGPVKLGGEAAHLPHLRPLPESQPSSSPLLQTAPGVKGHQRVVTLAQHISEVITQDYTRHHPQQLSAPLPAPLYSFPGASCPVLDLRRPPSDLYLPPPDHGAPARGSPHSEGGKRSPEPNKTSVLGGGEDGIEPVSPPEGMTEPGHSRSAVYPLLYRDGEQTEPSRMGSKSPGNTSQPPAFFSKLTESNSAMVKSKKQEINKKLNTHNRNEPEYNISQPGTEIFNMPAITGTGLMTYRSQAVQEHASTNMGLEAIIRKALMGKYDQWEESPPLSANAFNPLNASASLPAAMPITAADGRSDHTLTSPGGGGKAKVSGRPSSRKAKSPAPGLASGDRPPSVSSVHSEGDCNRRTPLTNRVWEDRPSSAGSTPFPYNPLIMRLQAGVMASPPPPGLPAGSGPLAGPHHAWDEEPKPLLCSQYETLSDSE
Test [3] deals with T1, Polyadenylate-binding protein 1 (Homo sapiens, UniProt P11940). In words: MLLE binding blockers, Cy5 peptide tracer – biochemical, fluorescence polarization, Cy5-PAM2 peptide, secondary, miRNA deadenylation inhibitor project, dose response (AID 602260). The settings on record: read-out: IC50_Mean. The test is classed as functional. In general terms: Fluorescence polarisation rises when a labelled molecule tumbles more slowly, as on binding a larger partner.
T1 sequence (P11940 whole entry): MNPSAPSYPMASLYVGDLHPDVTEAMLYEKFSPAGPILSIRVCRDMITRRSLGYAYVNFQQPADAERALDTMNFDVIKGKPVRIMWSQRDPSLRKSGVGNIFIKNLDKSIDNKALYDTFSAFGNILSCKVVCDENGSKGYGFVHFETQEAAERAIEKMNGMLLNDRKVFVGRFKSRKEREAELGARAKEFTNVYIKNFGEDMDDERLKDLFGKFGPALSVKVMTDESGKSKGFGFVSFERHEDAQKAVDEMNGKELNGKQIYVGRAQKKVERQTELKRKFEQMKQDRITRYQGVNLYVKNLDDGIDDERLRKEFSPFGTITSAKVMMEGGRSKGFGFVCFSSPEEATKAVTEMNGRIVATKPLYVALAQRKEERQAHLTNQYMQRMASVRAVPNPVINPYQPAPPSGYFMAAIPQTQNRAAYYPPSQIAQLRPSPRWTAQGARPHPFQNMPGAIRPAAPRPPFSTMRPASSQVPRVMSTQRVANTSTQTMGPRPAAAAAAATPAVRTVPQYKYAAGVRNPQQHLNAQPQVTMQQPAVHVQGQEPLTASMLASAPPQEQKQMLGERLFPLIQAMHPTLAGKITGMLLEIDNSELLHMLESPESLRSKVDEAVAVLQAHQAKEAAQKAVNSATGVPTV

Test [4] deals with T1, Polyadenylate-binding protein 1. In words: MLLE domain peptide-binding blockers, IC50 – biochemical, fluorescence polarization, FITC-PAM2 peptide, dose response (AID 602259). The test is classed as functional. The following applies: read-out: IC50_Mean.
For test [5], the target named is Photoreceptor-specific nuclear receptor (Homo sapiens, UniProt Q9Y5X4). It is filed as functional.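 Also: potency for compounds that break the NR2E3 corepressor complex and count as activators.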
In test [6] the target is Heat shock protein HSP 90-alpha (Homo sapiens, UniProt P07900). The test is classed as functional, organism-based.
Test [7] deals with Dual specificity tyrosine-phosphorylation-regulated kinase 1A (Rattus norvegicus, UniProt Q63470). It is filed as biochemical, Homo sapiens.
Test [8] concerns the target Cyclin-dependent kinase 5/CDK5 activator 1 (Homo sapiens, UniProt Q00535). Kind of test: blockade of human CDK5 activity – biochemical, cherry-picked samples, set 2, dose response (AID 504545).
Test [9] has as its target Metabotropic glutamate receptor 4 (Rattus norvegicus, UniProt P31423). Kind of test: Modulation of the Metabotropic Glutamate Receptor mGluR4: Rat PAM Potency. [Related pubchem assays (depositor defined):AID2437, AID2807]. The test is classed as functional.
The target of test [10] is Metabotropic glutamate receptor 4 (Homo sapiens, UniProt Q14833). In words: Modulation of the Metabotropic Glutamate Receptor mGluR4: Potency at human mGluR4. Modulation of intracellular Ca2+ using Fluo-4, AM, in CHO expressing recombinant receptor [Related pubchem assays (depositor defined):AID2437, AID2807]. The test is classed as functional, cell-based.
A further test addresses Wee1-like protein kinase (Homo sapiens, UniProt P30291). In words: HeLa cell cycle G2/M accumulation – FACS, mechanism study for Wee1 degradation inhibitor project, late-stage follow-up, panel member Wee1 Degradation (AID 2088).
Test [11] deals with G2/mitotic-specific cyclin-B1 (Homo sapiens, UniProt P14635). Kind of test: HeLa cell cycle G2/M accumulation – FACS, mechanism study for Wee1 degradation inhibitor project, late-stage follow-up, panel member Cyclin B Degradation (AID 2088).
Another test has as its system HeLa. In words: viability loss in HeLa cells – cell-based, 24 h, cherry-picked samples, cytotoxicity control, dose response (AID 504726).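 Also: potency for cytotoxicity as loss of luminescence signal.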 The test is classed as functional. The following applies: Homo sapiens.
Another test concerns Salmon testes DNA. Kind of test: acridine orange-DNA binding displacement – biochemical, fluorescence polarization, cherry-picked samples, set 2, artefact control for KSHV LANA DNA-binding inhibitor project, dose response (AID 504727). Details: species or system Salmonidae.
The target of another test is T2, ORF 73 (Human herpesvirus 8, UniProt O40947).
T2 sequence (O40947 whole entry): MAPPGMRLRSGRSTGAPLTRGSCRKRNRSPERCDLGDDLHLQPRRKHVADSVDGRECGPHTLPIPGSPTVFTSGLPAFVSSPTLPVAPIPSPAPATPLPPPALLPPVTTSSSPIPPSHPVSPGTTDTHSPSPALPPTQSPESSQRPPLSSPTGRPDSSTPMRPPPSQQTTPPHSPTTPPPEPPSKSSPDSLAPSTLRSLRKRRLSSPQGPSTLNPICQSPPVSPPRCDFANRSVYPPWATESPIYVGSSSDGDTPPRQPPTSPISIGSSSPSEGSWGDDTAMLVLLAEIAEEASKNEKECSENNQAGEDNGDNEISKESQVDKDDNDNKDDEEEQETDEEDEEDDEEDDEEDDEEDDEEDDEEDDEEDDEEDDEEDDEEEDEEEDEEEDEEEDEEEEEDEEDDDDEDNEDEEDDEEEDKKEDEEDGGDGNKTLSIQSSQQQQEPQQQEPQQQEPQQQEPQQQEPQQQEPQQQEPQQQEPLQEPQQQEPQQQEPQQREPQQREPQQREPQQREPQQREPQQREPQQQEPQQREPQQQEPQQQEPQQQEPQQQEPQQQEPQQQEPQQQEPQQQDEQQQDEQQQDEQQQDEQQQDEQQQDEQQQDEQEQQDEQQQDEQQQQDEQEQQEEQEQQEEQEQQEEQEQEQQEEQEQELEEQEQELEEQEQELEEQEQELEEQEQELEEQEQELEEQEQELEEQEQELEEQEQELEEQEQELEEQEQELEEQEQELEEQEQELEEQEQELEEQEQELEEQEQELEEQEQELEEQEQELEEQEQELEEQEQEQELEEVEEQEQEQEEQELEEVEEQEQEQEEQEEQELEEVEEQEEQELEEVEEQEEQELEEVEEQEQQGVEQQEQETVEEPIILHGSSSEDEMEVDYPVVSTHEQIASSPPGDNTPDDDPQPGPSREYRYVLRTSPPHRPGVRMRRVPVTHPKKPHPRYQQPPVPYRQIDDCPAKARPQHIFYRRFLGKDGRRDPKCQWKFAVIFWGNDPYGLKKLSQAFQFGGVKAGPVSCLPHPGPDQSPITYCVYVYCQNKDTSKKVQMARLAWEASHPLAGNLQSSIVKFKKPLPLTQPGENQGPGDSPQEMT
In words: KSHV LANA DNA-binding disruption – biochemical, fluorescence polarization, cherry-picked samples, dose response (AID 504725).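 Also: fluorescence polarization of a labeled DNA duplex reporting LANA DNA binding; potency is for inhibitors that block LANA binding to the DNA.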 Details: species or system Human gammaherpesvirus 8.

Test [12] addresses T3, Endoribonuclease toxin MazF (Escherichia coli K-12, UniProt P0AE70).
T3 sequence (P0AE70 whole entry): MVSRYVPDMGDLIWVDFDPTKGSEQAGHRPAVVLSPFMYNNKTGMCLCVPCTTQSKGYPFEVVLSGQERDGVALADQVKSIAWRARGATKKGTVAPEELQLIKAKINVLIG
Kind of test: substrate-only fluorescence increase artefacts – biochemical, single-stranded RNase substrate, counter-screen for MazEF activator project, dose response (AID 588502). It is filed as functional. (Counterscreens check selectivity or assay interference.)

Test [13] has as its target T3, Endoribonuclease toxin MazF. Kind of test: activation of MazEF endoribonuclease cleavage – biochemical, fluorescence, single-stranded RNA substrate, uHTS hits, dose response (AID 588481). The test is classed as functional.

Sequence of Wee1-like protein kinase (P30291 whole entry): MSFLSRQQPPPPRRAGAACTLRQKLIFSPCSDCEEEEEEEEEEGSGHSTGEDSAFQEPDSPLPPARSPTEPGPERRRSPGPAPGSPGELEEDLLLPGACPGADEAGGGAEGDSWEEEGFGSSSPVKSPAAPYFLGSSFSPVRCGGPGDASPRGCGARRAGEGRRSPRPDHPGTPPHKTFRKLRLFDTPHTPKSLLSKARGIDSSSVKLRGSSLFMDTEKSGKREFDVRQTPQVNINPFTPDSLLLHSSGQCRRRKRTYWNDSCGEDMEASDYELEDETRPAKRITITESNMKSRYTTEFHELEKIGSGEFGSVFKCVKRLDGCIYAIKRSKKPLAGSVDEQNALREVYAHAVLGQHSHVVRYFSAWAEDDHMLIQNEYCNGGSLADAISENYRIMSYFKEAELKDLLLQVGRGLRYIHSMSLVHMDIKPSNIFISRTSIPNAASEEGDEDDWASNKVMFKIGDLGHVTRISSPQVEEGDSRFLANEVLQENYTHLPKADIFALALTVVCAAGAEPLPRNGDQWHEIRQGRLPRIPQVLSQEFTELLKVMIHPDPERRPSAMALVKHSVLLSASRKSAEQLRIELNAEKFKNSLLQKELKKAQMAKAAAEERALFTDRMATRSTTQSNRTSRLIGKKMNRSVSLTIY
Sequence of Cyclin-dependent kinase 5/CDK5 activator 1 (Q00535 whole entry): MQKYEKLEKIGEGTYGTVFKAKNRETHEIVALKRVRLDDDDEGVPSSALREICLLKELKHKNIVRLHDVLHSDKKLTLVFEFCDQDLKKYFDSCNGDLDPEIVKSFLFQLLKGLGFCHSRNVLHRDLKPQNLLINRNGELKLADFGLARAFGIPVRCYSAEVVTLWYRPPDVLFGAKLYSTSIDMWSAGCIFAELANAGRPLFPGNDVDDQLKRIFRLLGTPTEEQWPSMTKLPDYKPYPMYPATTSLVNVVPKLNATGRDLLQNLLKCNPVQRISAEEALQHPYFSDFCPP
Sequence of Cyclin-dependent kinase 5/CDK5 activator 1 (Q15078 whole entry, further chain): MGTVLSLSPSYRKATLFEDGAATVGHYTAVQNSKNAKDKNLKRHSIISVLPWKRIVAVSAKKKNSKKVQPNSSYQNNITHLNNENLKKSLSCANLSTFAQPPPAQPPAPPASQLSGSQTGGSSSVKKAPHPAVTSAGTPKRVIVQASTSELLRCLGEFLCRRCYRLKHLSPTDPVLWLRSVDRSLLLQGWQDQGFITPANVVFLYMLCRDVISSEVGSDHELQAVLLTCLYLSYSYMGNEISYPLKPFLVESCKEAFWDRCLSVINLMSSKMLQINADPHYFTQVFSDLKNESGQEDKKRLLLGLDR

With `COc1ccccc1CNC(=S)Nc1ccncc1`, the IC50 in [1] is > 150 µM (active).
As for `COc1cccc(NC(=S)Nc2cc(C)cc(C)n2)c1`, the IC50 was 1.61 µM (active) in [2], > 66 µM (inactive) in test [3], > 66 µM (inactive) in test [4] and 2.04 µM (active) in test [5].
As a reminder, the AC50 is the midpoint of the concentration-response curve, whichever way the signal moves. As for `Nc1cc2c(cc1[N+](=O)[O-])-c1ccccc1C2=NO`, the AC50 in test [6] is 8.8 µM (active); in test [7], 0.143 µM (active); in test [8] it was 41.2 µM (active).
The EC50 is the midpoint of the concentration-response curve. With `O=C(Nc1ccc(Cl)c(Cl)c1)c1ccsc1`, the EC50 in [9] is 9.23 µM (active); in test [10], 12.7 µM (active).
On to `CCc1cccc(NC(=O)CCCOc2cc(=O)n(C)c3ccccc23)c1`, for which the EC50 (at Wee1-like protein kinase; in [11]) was > 49.7 µM (inactive) in each case.
For the compound `COc1ccc(-c2cc(C(F)(F)F)c3c(N)c(C(=O)NCCSC)sc3n2)cc1`, the AC50 with HeLa was 45.9 µM (active); with Salmon testes DNA it was 58.9 µM (active); at ORF 73, 34.5 µM (active). The EC50 in test [12] was 61.6 µM (inactive); in test [13], > 99 µM (inactive).
